According to PMC7290078, “Agonist bias and agonist‐dependent antagonism at corticotrophin releasing factor receptors” (Pharmacology Research & Perspectives, 2020):
No end group written: not given here.

Assays:
CRF2 receptor (hCRF2α) [1] = target: T1, CRF2 receptor (hCRF2α) (Homo sapiens, UniProt Q13324); assay: cAMP accumulation (LANCE) in Cos7 cells transfected with hCRF2α, agonist stimulation; assay type: cell-based
T1 construct: host or cells: Cos7 cells, transient transfection (PEI), pcDNA3.0/3.1 vector
T1 sequence (Q13324 1-411): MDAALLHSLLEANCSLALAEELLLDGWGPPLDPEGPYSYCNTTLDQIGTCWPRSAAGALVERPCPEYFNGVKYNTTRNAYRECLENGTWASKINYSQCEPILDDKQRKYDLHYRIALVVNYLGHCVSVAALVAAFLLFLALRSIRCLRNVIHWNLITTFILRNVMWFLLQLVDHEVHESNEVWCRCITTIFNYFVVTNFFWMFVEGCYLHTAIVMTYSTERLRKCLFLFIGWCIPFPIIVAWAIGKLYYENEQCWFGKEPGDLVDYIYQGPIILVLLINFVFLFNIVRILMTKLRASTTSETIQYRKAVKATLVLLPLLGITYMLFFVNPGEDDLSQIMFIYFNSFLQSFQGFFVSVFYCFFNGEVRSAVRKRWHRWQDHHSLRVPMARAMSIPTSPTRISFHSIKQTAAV
Description: (§1) Plasmids containing hCRF1α and hCRF2α (GenBank accession numbers AY457172 and AY449734) were obtained from the cDNA Resource Centre (Bloomsburg University) and are referred to as CRF1 and CRF2 in this manuscript. Hemagglutinin (HA) epitope‐tagged human Calcitonin (CT) receptor (CT(a) splice variant) and myc‐tagged human RAMP1 were used as described previously. ^27 HA‐tagged human calcitonin receptor‐like receptor (CLR), N‐terminal FLAG‐tagged human RAMP3 and N‐terminal myc‐tagged human RAMP3 were a gift from Professor David Poyner (Aston University) and Professor Patrick Sexton (Monash University), respectively. N‐terminal FLAG‐tagged human RAMP2 was used as described previously. ^28 All receptors and RAMPs were cloned in pcDNA3.0 or pcDNA3.1 plasmid vectors. All plasmid inserts were sequenced at the Centre for Genomics, Proteomics and Metabolomics (University of Auckland) and the sequences were verified prior to use.
(§2) Cos7, HEK‐293S, and HEK‐293T cells were cultured as described previously. ^28 , ^29 Cos7 cells were originally supplied by the ATCC to Associate Professor Nigel Birch (University of Auckland). HEK‐293S cells were a gift from Professor David Poyner (Aston University) and HEK‐293T cells a gift from Professor John Taylor (University of Auckland). Briefly, all cell lines were cultured in Dulbecco's Modified Eagle Medium (DMEM) supplemented with 8% heat inactivated fetal bovine serum (FBS) and maintained in a humidified incubator at 37°C with 5% CO2. For transfection, cells were counted (Countess CounterTM; Life Technologies) and plated at a density of 20 000 cells per well in 96‐well plates. The cells were transiently transfected 48 hours prior to assaying using polyethylenimine (PEI), as described previously. ^28 , ^29 In all experiments a total of 0.25 μg DNA was transfected per well. In the majority of experiments 0.25 μg DNA of receptor‐containing plasmid or the pcDNA3.1 plasmid without an insert was used. For experiments involving RAMPs, 0.125 μg of receptor DNA and 0.125 μg of RAMP‐containing plasmid DNA were transfected to give a 1:1 ratio of receptor to RAMP. Where the RAMP or receptor were transfected alone, the ratio of DNA was made up with the pcDNA3.1 plasmid.
cAMP accumulation in Cos7 cells transfected with hCRF1α or hCRF2α receptors was measured using the LANCE cAMP detection assay kit (PerkinElmer Life and Analytical Sciences) as described previously. ^30 Briefly, culture media was removed and replaced with DMEM containing 0.1% bovine albumin serum (BSA) and 1 mmol/L 3‐isobutyl‐1‐methylxanthine (IBMX) for 30 minutes at 37°C. Cells were incubated for an additional 15 minutes at 37°C with media or agonist concentrations of 1 pmol/L to 1 µmol/L for agonist only assays or 10 pmol/L to 10 µmol/L concentrations for antagonist experiments. Antagonists were added simultaneously or immediately prior to the addition of agonists. To stop cell stimulation and extract cAMP, the contents of the wells were replaced with 50 µL absolute ethanol. Samples were left at −20°C for a minimum of 10 minutes. The ethanol was evaporated and replaced with 50 µL of cAMP detection buffer. Samples were shaken for 15 minutes before 5 µL cell lysate was transferred to a white 384‐well optiplate and processed for cAMP quantification as described previously. ^31 Samples were read using an Envision plate reader (PerkinElmer). cAMP concentrations were determined from a standard curve generated in duplicate.
In all experiments the position of peptides and antagonists (pharmacology) or transfected receptors (ELISAs) on assay plates was randomized during each independent experiment, which are independent biological replicates. In all cases, duplicate, triplicate, or quadruplicate technical replicates were conducted for each independent experiment.

CRF2 receptor (hCRF2α) [2] = target: T1, CRF2 receptor (hCRF2α); assay: IP1 accumulation (IP-one Gq) in Cos7 cells transfected with hCRF2α, agonist stimulation; assay type: cell-based
Description: as §1, §2
The IP‐one Gq assay kit (Cisbio) was used to quantify accumulated myo‐inositol‐1‐phosphate (IP1), a by‐product of IP3 produced after receptor‐mediated Gαq activation in Cos7 and HEK‐293S cells. Briefly, culture media was removed and replaced with DMEM containing 0.1% BSA for 30 minutes at 37°C. Cells were then incubated with media containing 50 mmol/L lithium chloride (LiCl) for an additional 0‐120 minutes (time courses) or 90 minutes at 37°C in the presence or absence of an antagonist. Agonist concentrations of 1 pmol/L to 10 µmol/L were used for agonist only assays or 10 pmol/L to 10 µmol/L concentrations for antagonist experiments. After cell stimulation, 14 µL of stimulation buffer was added to each well. Three microlitres of each detection antibody were added in turn to the plate and incubated at room temperature for 1 hour. Fifteen microliters of sample was then transferred to a 384‐well optiplate and read by an Envision plate reader (PerkinElmer). IP1 concentrations were calculated from a standard curve generated in duplicate.
In all experiments the position of peptides and antagonists (pharmacology) or transfected receptors (ELISAs) on assay plates was randomized during each independent experiment, which are independent biological replicates. […]

EC50 (CRF2 receptor (hCRF2α) [1]; cAMP, hCRF2α, Cos7, 15 min at 37°C, 1 mmol/L IBMX, 1 pmol/L to 1 µmol/L agonist, mean ± SEM, n = 5) [nM] | EC50 (CRF2 receptor (hCRF2α) [2]; IP1, hCRF2α, Cos7, 90 min at 37°C, 50 mmol/L LiCl, 1 pmol/L to 10 µmol/L agonist, mean ± SEM, n = 5) [nM] | concentration‐dependent increase in cAMP (CRF2 receptor (hCRF2α) [1]; CRF2 receptor) | ΔΔlog(τ/K A) (signaling bias) (CRF2 receptor (hCRF2α) [1]; cAMP (reference pathway), hCRF2α, reference agonist UCN1, mean ± SEM, n = 5) | Hill slope (CRF2 receptor (hCRF2α) [1]; cAMP, CRF2 receptor) | Δlog(τ/K A) (relative efficacy) (CRF2 receptor (hCRF2α) [1]; cAMP, hCRF2α, reference agonist UCN1, mean ± SEM, n = 5) | concentration‐dependent increase in IP1 accumulation (CRF2 receptor (hCRF2α) [2]; CRF2 receptor) | Hill slope (CRF2 receptor (hCRF2α) [2]; IP1, CRF2 receptor) | Δlog(τ/K A) (relative efficacy) (CRF2 receptor (hCRF2α) [2]; IP1, hCRF2α, reference agonist UCN1, mean ± SEM, n = 5) | ΔΔlog(τ/K A) (signaling bias) (CRF2 receptor (hCRF2α) [2]; IP1 relative to cAMP, hCRF2α, reference agonist UCN1, mean ± SEM, n = 5) | Substance
0.0955 | 4.68 |  |  |  |  |  |  |  |  | DNPSLSIDLTFHLLRTLLELARTQSQRERAEQNRIIFDSV-NH2 [UCN1]
 |  | concentration‐dependent increases | 0.00 ± 0.27 | not significantly different from one | −0.55 ± 0.19 | concentration‐dependent increases | not significantly different from one | −1.42 ± 0.13 | −0.87 ± 0.23 | IVLSLDVPIGLLQILLEQARARAAREQATTNARILARVGHC-NH2 (C-terminus assumed) [UCN2]
